Reference: ChEMBL document CHEMBL5579865, “Discovery of Broad-Spectrum Herpes Antiviral Oxazolidinone Amide Derivatives and Their Structure-Activity Relationships” (ACS Med Chem Lett, 2024)
Values after ≈ are worked out from the molar mass of the structure shown. Active and inactive are the calls of the source. The calls are words filed in the database; no cut-off is given here.

Assays:
[1] = Oral bioavailability in Wistar rat at 10 mg/kg administration; format: ADME, organism-based; conditions: in vivo
[2] = Unbound AUC in Wistar rat at 3 mg/kg,iv or 10 mg/kg,po administration; format: ADME, organism-based; conditions: in vivo
Human alphaherpesvirus 2 = assay: Antiviral activity against HSV-2 G strain infected in African green monkey Vero cells assessed as reduction in viral replication incubated for 72 hrs by qRT-PCR analysis; format: functional, organism-based
Human betaherpesvirus 5 [3] = assay: Antiviral activity against HCMV AD169 infected in human MRC5 cells assessed as reduction in viral replication incubated for 72 hrs in presence of 50 % serum by qRT-PCR analysis; format: functional, organism-based
[4] = Inhibition of HCMV DNA polymerase extracted from baculovirus infected Sf21 cells using Heterodimeric nucleic acid as substrate preincubated with enzyme for 30 mins followed by substrate and dATP addition measured after 60 mins by biotinylated UTP incorporation based AlphaLISA assay; design: species or system Human betaherpesvirus 5
[5] = Inhibition of VZV DNA polymerase extracted from baculovirus infected Sf21 cells using Heterodimeric nucleic acid as substrate preincubated with enzyme for 30 mins followed by substrate and dATP addition measured after 60 mins by biotinylated UTP incorporation based AlphaLISA assay; design: species or system Human alphaherpesvirus 3
[6] = Metabolic stability in human liver microsomes assessed as intrinsic clearance; format: ADME, Microsome; conditions: read-out: CLH
[7] = Solubility in PBS at pH 7; format: physicochemical
[8] = molecular target: Voltage-gated inwardly rectifying potassium channel KCNH2 (Homo sapiens, UniProt Q12809); assay: Inhibition of hERG by patch-clamp assay; format: toxicity
[9] = molecular target: Voltage-dependent L-type calcium channel subunit alpha-1C (Homo sapiens, UniProt Q13936); assay: Inhibition of Cav1.2 (unknown origin)
[10] = Unbound volume of distribution in Wistar rat at 3 mg/kg,iv or 10 mg/kg,po administration; format: ADME, organism-based; conditions: in vivo
[11] = MRT in Wistar rat at 3 mg/kg,iv or 10 mg/kg,po administration; format: ADME, organism-based; conditions: in vivo
[12] = Unbound fraction in Wistar rat plasma at 3 mg/kg,iv or 10 mg/kg,po administration; format: ADME, organism-based
Human alphaherpesvirus 3 [13] = assay: Antiviral activity against VZV Street infected in human MeWo cells assessed as reduction in viral replication incubated for 72 hrs by qRT-PCR analysis; format: functional, organism-based
[14] = Unbound clearance in Wistar rat at 3 mg/kg,iv administration; format: ADME, organism-based; conditions: in vivo
[15] = molecular target: Sodium channel protein type 5 subunit alpha (Homo sapiens, UniProt Q14524); assay: Inhibition of Nav1.5 (unknown origin)
Human alphaherpesvirus 1 [16] = assay: Antiviral activity against HSV-1 F strain infected in African green monkey Vero cells assessed as reduction in viral replication incubated for 72 hrs by qRT-PCR analysis; format: functional, organism-based
[17] = Inhibition of Inward-rectifier potassium channel (unknown origin); design: species or system Homo sapiens
Human alphaherpesvirus 3 [18] = assay: Antiviral activity against VZV Street infected in human MRC5 cells assessed as reduction in viral replication incubated for 72 hrs by qRT-PCR analysis; format: functional, organism-based; conditions: Human alphaherpesvirus 3, Street, MRC5, 72 h
Human betaherpesvirus 5 [19] = assay: Antiviral activity against HCMV AD169 infected in human MRC5 cells assessed as reduction in viral replication incubated for 72 hrs in presence of 10 % serum by qRT-PCR analysis; format: functional, organism-based; conditions: Human betaherpesvirus 5, AD169, MRC5, 72 h
Cytomegalovirus [20] = assay: Antiviral activity against Cytomegalovirus Smith intraperitoneally infected in BALB/c mouse assessed as reduction in viral burden in salivary gland at 150 mg/kg,po bid administration measured after 10 days by plaque assay; format: functional, organism-based; conditions: route ip, time 10.0 day
[21] = Unbound clearance in Wistar rat at 1 mg/kg,iv administration; format: ADME, organism-based; conditions: in vivo
Human alphaherpesvirus 1 [22] = assay: Antiviral activity against HSV-1 F strain intranasally infected in BALB/c mouse assessed as reduction in viral burden in brain at 30 to 150 mg/kg,po bid administration measured after 4 days by plaque assay; format: functional, organism-based; conditions: dose 30-150 mg/kg, time 4.0 day
Human alphaherpesvirus 1 [23] = assay: Antiviral activity against HSV-1 F strain intranasally infected in BALB/c mouse assessed as increase in mouse survival rate at 150 mg/kg,po bid administration for 7 days relative to control; format: functional; conditions: Human alphaherpesvirus 1, F strain, 168 h, time 7 day
Human alphaherpesvirus 1 [24] = assay: Antiviral activity against HSV-1 F strain intranasally infected in BALB/c mouse assessed as increase in mouse survival at po bid administration for 7 days; format: functional, organism-based; conditions: time 7.0 day
Cytomegalovirus [25] = assay: Antiviral activity against Cytomegalovirus Smith intraperitoneally infected in BALB/c mouse assessed as reduction in viral burden in spleen at 150 mg/kg,po bid administration measured after 4 days by plaque assay; format: functional, organism-based; conditions: route ip, time 4.0 day
Human alphaherpesvirus 1 [26] = assay: Antiviral activity against HSV-1 F strain intranasally infected in BALB/c mouse assessed as increase in mouse survival rate at 30 mg/kg,po bid administrated 2 days before viral infection measured after 2 days; format: functional, organism-based; conditions: time 2.0 day
[27] = Unbound fraction in Wistar rat plasma at 1 mg/kg,iv or 10 mg/kg,po administration; format: ADME, organism-based
Cytomegalovirus [28] = assay: Antiviral activity against Cytomegalovirus Smith intraperitoneally infected in BALB/c mouse assessed as reduction in viral burden in salivary gland at 30 mg/kg,po bid administration measured after 10 days by plaque assay; format: functional, organism-based; conditions: route ip, time 10.0 day
[29] = Unbound volume of distribution in Wistar rat at 1 mg/kg,iv or 10 mg/kg,po administration; format: ADME, organism-based; conditions: in vivo
[30] = MRT in Wistar rat at 1 mg/kg,iv or 10 mg/kg,po administration; format: ADME, organism-based; conditions: in vivo
Human alphaherpesvirus 1 [31] = assay: Antiviral activity against HSV-1 F strain intranasally infected in BALB/c mouse assessed as reduction in viral burden in lung at 30 to 150 mg/kg,po bid administration measured after 4 days; format: functional, organism-based; conditions: dose 30-150 mg/kg, time 4.0 day
Cytomegalovirus [32] = assay: Antiviral activity against Cytomegalovirus Smith intraperitoneally infected in BALB/c mouse assessed as reduction in viral burden in spleen at 30 mg/kg,po bid administration measured after 4 days by plaque assay; format: functional, organism-based; conditions: route ip, time 4.0 day
Human alphaherpesvirus 1 [33] = assay: Antiviral activity against HSV-1 F strain intranasally infected in BALB/c mouse assessed as increase in mouse survival rate at 150 mg/kg,po bid administrated 2 days before viral infection measured after 2 days; format: functional, organism-based; conditions: time 2.0 day
[34] = Unbound AUC in Wistar rat at 1 mg/kg,iv or 10 mg/kg,po administration; format: ADME, organism-based; conditions: in vivo
Cytomegalovirus [35] = assay: Antiviral activity against Cytomegalovirus Smith intraperitoneally infected in BALB/c mouse assessed as reduction in viral burden in salivary gland at 50 mg/kg,po bid administration measured after 10 days by plaque assay; format: functional, organism-based; conditions: route ip, time 10.0 day
Cytomegalovirus [36] = assay: Antiviral activity against Cytomegalovirus Smith intraperitoneally infected in BALB/c mouse assessed as reduction in viral burden in salivary gland at 25 mg/kg,ip qd administration measured after 10 days by plaque assay; format: functional, organism-based; conditions: time 10.0 day
[37] = Human alphaherpesvirus 2, G strain, Vero, 72 h, read-out: EC50
[38] = Human betaherpesvirus 5, AD169, MRC5, 72 h, read-out: EC50
[39] = Human alphaherpesvirus 3, Street, MeWo, 72 h, read-out: EC50
[40] = Human alphaherpesvirus 1, F strain, Vero, 72 h, read-out: EC50

Sequence of Voltage-gated inwardly rectifying potassium channel KCNH2 (Q12809 whole entry): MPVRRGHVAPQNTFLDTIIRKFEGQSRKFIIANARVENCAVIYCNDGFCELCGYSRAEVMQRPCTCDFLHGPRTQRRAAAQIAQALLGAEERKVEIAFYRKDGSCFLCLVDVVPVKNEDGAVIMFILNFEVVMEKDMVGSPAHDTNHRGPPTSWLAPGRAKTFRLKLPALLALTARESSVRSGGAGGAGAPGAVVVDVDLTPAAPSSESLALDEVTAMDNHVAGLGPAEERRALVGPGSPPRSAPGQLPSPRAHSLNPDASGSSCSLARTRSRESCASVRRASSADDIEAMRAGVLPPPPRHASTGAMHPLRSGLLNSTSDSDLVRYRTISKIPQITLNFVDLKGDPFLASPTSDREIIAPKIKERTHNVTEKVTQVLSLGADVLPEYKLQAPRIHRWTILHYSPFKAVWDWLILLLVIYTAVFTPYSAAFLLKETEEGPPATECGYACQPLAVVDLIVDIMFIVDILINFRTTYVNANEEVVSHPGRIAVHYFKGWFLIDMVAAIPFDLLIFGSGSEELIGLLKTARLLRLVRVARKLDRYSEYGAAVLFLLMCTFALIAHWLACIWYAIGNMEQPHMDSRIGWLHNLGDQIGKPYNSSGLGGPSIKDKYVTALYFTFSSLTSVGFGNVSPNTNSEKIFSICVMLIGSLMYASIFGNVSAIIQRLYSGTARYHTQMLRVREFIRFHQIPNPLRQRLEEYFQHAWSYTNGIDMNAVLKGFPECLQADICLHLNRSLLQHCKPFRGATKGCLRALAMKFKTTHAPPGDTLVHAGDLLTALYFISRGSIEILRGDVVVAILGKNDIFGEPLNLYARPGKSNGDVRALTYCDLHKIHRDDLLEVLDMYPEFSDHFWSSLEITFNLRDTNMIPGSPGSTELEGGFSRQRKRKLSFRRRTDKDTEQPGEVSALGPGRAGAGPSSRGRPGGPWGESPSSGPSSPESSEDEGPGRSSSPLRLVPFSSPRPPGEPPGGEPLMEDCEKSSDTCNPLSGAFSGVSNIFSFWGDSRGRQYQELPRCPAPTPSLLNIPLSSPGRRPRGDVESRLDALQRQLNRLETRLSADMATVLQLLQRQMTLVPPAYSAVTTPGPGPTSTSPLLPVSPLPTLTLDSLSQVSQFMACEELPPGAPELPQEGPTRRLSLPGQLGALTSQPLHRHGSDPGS
Sequence of Voltage-dependent L-type calcium channel subunit alpha-1C (Q13936 whole entry): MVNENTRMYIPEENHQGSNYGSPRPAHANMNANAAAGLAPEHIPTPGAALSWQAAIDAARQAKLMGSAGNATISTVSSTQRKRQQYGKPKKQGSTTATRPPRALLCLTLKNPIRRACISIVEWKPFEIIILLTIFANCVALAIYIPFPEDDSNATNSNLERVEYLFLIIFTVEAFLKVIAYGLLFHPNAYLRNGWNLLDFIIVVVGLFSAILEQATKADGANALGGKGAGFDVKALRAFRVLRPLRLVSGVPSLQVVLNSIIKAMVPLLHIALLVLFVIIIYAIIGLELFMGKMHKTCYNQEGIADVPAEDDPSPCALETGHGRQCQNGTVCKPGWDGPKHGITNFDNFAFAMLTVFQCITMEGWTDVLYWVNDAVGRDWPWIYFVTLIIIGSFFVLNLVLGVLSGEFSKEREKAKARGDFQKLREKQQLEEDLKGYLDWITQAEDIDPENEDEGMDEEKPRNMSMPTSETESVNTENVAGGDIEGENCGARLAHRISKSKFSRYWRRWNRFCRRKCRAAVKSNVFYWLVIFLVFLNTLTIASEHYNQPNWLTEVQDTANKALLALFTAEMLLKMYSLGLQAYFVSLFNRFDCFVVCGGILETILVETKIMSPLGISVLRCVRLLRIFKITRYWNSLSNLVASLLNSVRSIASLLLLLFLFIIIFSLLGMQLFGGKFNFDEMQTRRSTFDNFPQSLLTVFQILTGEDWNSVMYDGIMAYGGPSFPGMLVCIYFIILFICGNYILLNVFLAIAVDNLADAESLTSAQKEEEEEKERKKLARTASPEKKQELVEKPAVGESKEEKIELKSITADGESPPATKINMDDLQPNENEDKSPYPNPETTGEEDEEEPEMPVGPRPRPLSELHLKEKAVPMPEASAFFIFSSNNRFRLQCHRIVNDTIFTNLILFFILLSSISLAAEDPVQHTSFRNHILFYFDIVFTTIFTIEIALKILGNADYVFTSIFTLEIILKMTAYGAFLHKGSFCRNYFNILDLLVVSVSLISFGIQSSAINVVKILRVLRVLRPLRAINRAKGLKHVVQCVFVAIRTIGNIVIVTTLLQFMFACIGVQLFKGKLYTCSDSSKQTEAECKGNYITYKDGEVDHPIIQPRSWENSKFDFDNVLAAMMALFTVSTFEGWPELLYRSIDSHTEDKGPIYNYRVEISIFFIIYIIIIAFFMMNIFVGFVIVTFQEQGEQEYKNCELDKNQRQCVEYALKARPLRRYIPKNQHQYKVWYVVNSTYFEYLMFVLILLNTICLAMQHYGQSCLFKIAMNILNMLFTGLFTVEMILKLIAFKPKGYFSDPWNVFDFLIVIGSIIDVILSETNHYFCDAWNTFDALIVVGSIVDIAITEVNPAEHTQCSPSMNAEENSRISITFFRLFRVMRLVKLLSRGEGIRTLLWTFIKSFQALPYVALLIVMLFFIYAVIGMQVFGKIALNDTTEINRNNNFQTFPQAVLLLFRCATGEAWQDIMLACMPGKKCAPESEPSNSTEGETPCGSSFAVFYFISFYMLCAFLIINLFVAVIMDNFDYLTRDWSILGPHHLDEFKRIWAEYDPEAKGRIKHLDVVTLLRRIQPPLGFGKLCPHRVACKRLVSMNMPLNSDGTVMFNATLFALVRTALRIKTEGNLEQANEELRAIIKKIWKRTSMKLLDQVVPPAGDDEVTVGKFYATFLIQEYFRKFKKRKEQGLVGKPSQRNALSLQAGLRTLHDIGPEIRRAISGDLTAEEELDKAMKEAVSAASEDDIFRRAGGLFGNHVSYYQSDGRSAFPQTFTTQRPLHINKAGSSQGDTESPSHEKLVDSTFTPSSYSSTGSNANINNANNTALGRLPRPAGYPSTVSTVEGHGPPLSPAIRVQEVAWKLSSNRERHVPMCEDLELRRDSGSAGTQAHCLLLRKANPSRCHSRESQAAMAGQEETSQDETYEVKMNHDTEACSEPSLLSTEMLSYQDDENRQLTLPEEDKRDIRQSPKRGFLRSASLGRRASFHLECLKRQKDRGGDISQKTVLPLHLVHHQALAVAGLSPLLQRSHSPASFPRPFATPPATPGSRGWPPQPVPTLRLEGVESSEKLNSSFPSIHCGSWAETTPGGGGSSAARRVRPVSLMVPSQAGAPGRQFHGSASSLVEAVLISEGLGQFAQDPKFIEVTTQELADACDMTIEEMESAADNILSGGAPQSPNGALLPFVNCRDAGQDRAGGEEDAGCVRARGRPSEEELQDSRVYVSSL

| SMILES | bioavailability [1] | EC50 (Human alphaherpesvirus 2; [37]) | EC50 (Human betaherpesvirus 5 [3]; [38]) | IC50 [4] | IC50 [5] | CLint scaled [6] | solubility [7] | IC50 [8] | IC50 [9] | EC50 (Human alphaherpesvirus 3 [13]; [39]) | IC50 [15] | EC50 (Human alphaherpesvirus 1 [16]; [40]) | IC50 [17] | EC50 (Human alphaherpesvirus 2) | EC50 (Human alphaherpesvirus 3 [18]) | EC50 (Human alphaherpesvirus 1 [16]) | EC50 (Human betaherpesvirus 5 [19]) | further results |
| --- | --- | --- | --- | --- | --- | --- | --- | --- | --- | --- | --- | --- | --- | --- | --- | --- | --- | --- |
| COc1cc(NC(=O)Cc2ccc(Cl)cc2)ccc1C[C@H]1COC(=O)N1 | 27% | 0.17 µM | 0.37 µM | 0.049 µM | 0.017 µM | 16 mL/min/kg | 161 µM (≈ 60.3 µg/mL) | 20 µM | 12.9 µM | 0.097 µM | 10.5 µM | 0.1 µM | 24.5 µM | – | – | – | – | fAUC [2]: 0.228 µM·h; Vdu [10]: 24 L/kg; MRT [11]: 0.7 h; fraction unbound [12]: 0.027; CL free [14]: 605 mL/min/kg |
| COc1cc(NC(=O)Cc2ccc(Cl)cc2)ncc1C[C@H]1COC(=O)N1 | – | – | – | 15.9 µM | 6.29 µM | – | < 2 µM | – | – | – | – | – | – | Not Active | > 80.2 µM | Not Active | 51.2 µM | – |
| COc1cc(NC(=O)Cc2ccc(C(F)(F)F)cc2)ccc1C[C@H]1COC(=O)N1 | 71% | 0.114 µM | 0.641 µM | 0.022 µM | 0.013 µM | 20 mL/min/kg | 129 µM (≈ 52.7 µg/mL) | 27 µM | 7.6 µM | 0.126 µM | 13.2 µM | 0.115 µM | 25.1 µM | – | – | – | – | Activity (Cytomegalovirus [20]): Active; CL free [21]: 187 mL/min/kg; Activity (Human alphaherpesvirus 1 [22]): Active; survival at 150 mg/kg (Human alphaherpesvirus 1 [23]): 100%; Activity (Human alphaherpesvirus 1 [24]): Dose-Dependent Effect; Activity (Cytomegalovirus [25]): Active; Activity (Human alphaherpesvirus 1 [26]): Active; fraction unbound [27]: 0.052; Activity (Cytomegalovirus [28]): inactive; Vdu [29]: 20 L/kg; MRT [30]: 1.8 h; Activity (Human alphaherpesvirus 1 [31]): Active; Activity (Cytomegalovirus [32]): inactive; Activity (Human alphaherpesvirus 1 [33]): Active; fAUC [34]: 0.222 µM·h |
| O=C1N[C@@H](Cc2ccc3c(c2)CCN(Cc2ccc(Cl)cc2)C3=O)CO1 | – | – | – | 27.6 µM | 40.3 µM | – | – | – | – | – | – | – | – | Not Active | – | Not Active | 44.2 µM | EC50 (Human alphaherpesvirus 3 [13]): Not Active |
| Nc1nc2c(ncn2COC(CO)CO)c(=O)[nH]1 | – | – | – | – | – | – | – | – | – | – | – | – | – | – | – | – | – | Activity (Cytomegalovirus [35]): inactive; Activity (Cytomegalovirus [36]): inactive |
| COc1cc(NC(=O)Cc2ccc(OC(F)(F)F)cc2)ccc1C[C@H]1COC(=O)N1 | – | – | – | 1.29 µM | 1.69 µM | – | – | – | – | – | – | – | – | Not Active | 64.5 µM | Not Active | – | EC50 (Human betaherpesvirus 5 [3]): Not Active |
